Measurements reported in ChEMBL document CHEMBL4321844, “Rational Design and Optimization of a Novel Class of Macrocyclic Apoptosis Signal-Regulating Kinase 1 Inhibitors” (J Med Chem, 2019).

Test: Unbound brain to plasma concentration ratio, Kp of the compound in rat at 1 mg/kg, iv for 4 hrs by LC-MS/MS analysis
Format: ADME, organism-based
Conditions: brain and plasma, read-out: K(p,uu,brain)

Point of comparison: CN(C)CCn1cc(-c2ccc3c(c2)C(=O)Nc2cccc(n2)-c2nncn2CCCCO3)cn1, Kp uu at 4 h 1. Against it:
- C[C@@H]1CCOc2cc(F)ccc2C(=O)Nc2cccc(n2)-c2nncn2C1 — lower, 0.17
- C[C@H]1CCCOc2cc(F)ccc2C(=O)Nc2cccc(n2)-c2nncn21 — lower, 0.09
- Cc1cn(-c2ccc3c(c2)C(=O)Nc2cccc(n2)-c2nncn2CCCCO3)cn1 — lower, < 0.1
- C[C@@H]1CCOc2cc(F)c(-c3cnn(CCN(C)C)c3)cc2C(=O)Nc2cccc(n2)-c2nncn2C1 — lower, < 0.1
